The text below walks through data of publication PMC11249239 (PLOS ONE, 2024).

One data set concerns the target HDAC4 (Homo sapiens, UniProt P56524). Nature of the data set: HDAC4 activity inhibition (data not shown). The format is biochemical. Particulars: read-out: IC50 class IIa HDAC4 inhibition.
For data set [1], the system named is MCF10A normal breast epithelial cells. Nature of the data set: Cell growth inhibition (CCK8 cytotoxicity assay), MCF10A. The data set is classed as cell-based. The note with it: 48 h treatment, read-out: Average EC50 ± SD, cell growth inhibition. In general terms: Tetrazolium assays rely on reduction of a dye to a coloured formazan, in cell work by metabolically active cells.

The next data set concerns MDA-MB-231 (TNB) cells. Nature of the data set: Cell growth inhibition (CCK8 cytotoxicity assay), MDA-MB-231. The format is cell-based. Particulars: 48 h treatment, read-out: Average EC50 ± SD, cell growth inhibition.
In data set [2] the test system is ER+ BC cells (MCF-7 and T47D). Nature of the data set: Cell growth inhibition, ER+ breast cancer cells stated together. The data set is classed as cell-based. An excerpt: (§1) Prism-GraphPad software was used to analyze data.
The test system of data set [3] is triple negative breast cancer cells. The data set can be described thus: Cell growth inhibition, triple negative breast cancer cells stated together. The format is cell-based. Particulars: range over triple negative breast cancer cells; read-out: effective growth inhibition concentrations (EC50).
Source text: as §1

In another data set the test system is MCF10A cells. The data set can be described thus: Radiation clonogenic survival assay, MCF10A. The note with it: 0.3 μM for 24 h then graded γ-radiation, control 2.5 Gy. The format is cell-based. The method, then:
Logarithmically growing cells were treated with vehicle (0.1% Dimethyl Sulfoxide) or SP-1-303 (0.3 μM) for 24 h followed by sham or γ-radiation using a Mark-30 irradiator with a 137Cs source at a fixed dose rate of 2.71 Gy/min. Cells were exposed to graded doses at room temperature. After 10–14 days, cells were fixed and stained with crystal violet, and colonies were counted. The surviving fractions of treated cells were normalized using the plating efficiencies of untreated controls. Radiation survival curves were generated by fitting to the single-hit, multitarget model.

Data set [4] can be described thus: Plasma pharmacokinetics after intravenous administration. The format is in vivo, Sprague-Dawley rats. Particulars: 20 mg/kg IV. The source says: A commercial vendor (Medicilon, Inc.) performed the pharmacokinetic studies. Male Sprague-Dawley Rats (n = 8) were received from Sino-British SIPPR/BK Lab Animal Ltd., Shanghai, and 6 animals were placed on study. All studies were approved by the Institutional Animal Care and Use Committee (Protocol #: 19098–17002) of Medicilon Preclinical Research-Shanghai LLC, Pudong Shanghai 201200, P.R. China. The animals were allowed to acclimatize for at least 5 d before beginning the study. The procedure was performed under general anesthesia with 3–5% isoflurane for blood collections via jugular vein. All efforts were made to minimizing suffering and least stressful. The compound was dissolved in 5% DMSO + 40% PEG400 + 55% PBS to yield a final concentration of 2 mg/ml. The tolerated dose (20 mg/Kg) was administered via intravenous (IV) in rats. After IV administration, blood samples were collected via jugular vein at various time points (0, 1, 2, 4, 6, and 8 h) under general anesthesia with 3–5% isoflurane. Samples were then placed into tubes containing K2EDTA and centrifuged at 8,000 rpm for 6 min to obtain plasma. The resulting plasma were analyzed by LCMS. Following completion of the study, all surviving animals were euthanized with CO2, followed by cervical dislocation. Pharmacokinetic analysis was determined using a non-compartmental module of WinNonlin Professional 5.2. The maximum measured plasma concentrations (Cmax) and the time of Cmax (tmax) were derived directly from the data. The area under the curve (AUC) was calculated using the log-linear trapezoidal method rule up to the last data point and was extrapolated to infinity with the following formula: Clast/β, where Clast is the last measured concentration time point. The elimination half-life was calculated with the equation t1/2 = 0.693/β, where β is the terminal rate constant. The clearance (Cl = dose/AUC) rate was also evaluated.

In the next data set the test system is acetylated α-tubulin. Nature of the data set: Western blot, acetylation of α-tubulin. The data set is classed as cell-based. Particulars: MCF7 and MDA-MB-231; 1 μM; time dependent. The source says:
Following treatment of cells with SP-1-303 over a time course, total or nuclear proteins were extracted and analyzed on 4–20% trisglycine gradient sodium dodecyl sulfate polyacrylamide gel electrophoresis (SDS-PAGE). Subsequently, membranes were probed with antibodies targeting specific proteins in accordance with the manufacturers’ protocols, including ATM (ab78), p-BRCA1 (ab90528), BRCA1 (ab191042), p-p53/S15 (ab1431), acetylated H3K9 (ab12179) from Abcam, as well as p-ATM (# 5883) and p53 (#9282) from Cell Signaling, α-tubulin (T6793) and β-actin (A3854) from Sigma-Aldrich, ER-α (cat# MA1-80216, Invitrogen) and HDAC2 (BML-SA402. Enzo). Protein images were captured using ECL Prime Western Blotting Detection Reagents (Cat#. RPN2232, Amersham) and the Amersham Imager 600. For immunofluorescent analysis, formalin fixed cells were permeabilized with 0.1% Triton X-100 in TBS for 10 minutes at room temperature, followed by blocking with 1% Blocker BSA for 15 minutes at room temperature. Cells were then probed with a phospho-ATM monoclonal antibody (MA5-15185) and DyLight 488 goat anti-mouse IgG secondary antibody at room temperature. Actin was stained with DyLight 554 phalloidin, while nuclei were stained with 4’,6-diamidino-2-phenylindole dye (DAPI). Images were captured using a Nikon Epi Fluorescent microscopy.
For orientation: A western blot detects proteins with antibodies after separation by electrophoresis.

Like-named read-outs stand apart in the source and are kept apart here.

Sequence of HDAC4 (P56524 whole entry, species assumed): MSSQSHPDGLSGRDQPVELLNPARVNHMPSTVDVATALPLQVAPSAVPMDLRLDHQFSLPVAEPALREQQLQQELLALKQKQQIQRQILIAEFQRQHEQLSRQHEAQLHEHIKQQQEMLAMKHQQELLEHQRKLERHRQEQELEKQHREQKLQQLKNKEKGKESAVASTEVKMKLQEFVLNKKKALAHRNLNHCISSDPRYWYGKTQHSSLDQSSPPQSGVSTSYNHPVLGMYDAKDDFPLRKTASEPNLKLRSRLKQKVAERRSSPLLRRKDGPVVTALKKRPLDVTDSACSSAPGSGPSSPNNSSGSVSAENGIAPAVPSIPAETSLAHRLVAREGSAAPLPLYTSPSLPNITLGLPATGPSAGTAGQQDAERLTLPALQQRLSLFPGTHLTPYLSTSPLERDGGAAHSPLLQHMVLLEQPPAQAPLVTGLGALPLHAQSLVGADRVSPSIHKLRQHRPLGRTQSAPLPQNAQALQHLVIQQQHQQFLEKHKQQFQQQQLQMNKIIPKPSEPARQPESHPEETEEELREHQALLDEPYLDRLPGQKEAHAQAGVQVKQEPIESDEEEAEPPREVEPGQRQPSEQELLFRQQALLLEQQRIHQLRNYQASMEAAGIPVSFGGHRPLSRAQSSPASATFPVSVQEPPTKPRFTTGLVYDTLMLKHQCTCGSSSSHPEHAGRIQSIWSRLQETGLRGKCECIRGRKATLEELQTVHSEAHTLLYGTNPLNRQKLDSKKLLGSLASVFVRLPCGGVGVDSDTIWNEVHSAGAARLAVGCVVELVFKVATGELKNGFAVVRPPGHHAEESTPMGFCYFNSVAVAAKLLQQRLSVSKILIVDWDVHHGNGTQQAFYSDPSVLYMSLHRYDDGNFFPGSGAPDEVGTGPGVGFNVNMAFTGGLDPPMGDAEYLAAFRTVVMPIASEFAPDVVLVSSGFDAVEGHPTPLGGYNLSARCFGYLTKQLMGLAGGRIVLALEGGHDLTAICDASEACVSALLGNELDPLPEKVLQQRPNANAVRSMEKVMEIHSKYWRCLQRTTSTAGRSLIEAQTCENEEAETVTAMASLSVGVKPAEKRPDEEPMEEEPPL

The term IC50 denotes the point on the concentration scale where inhibition reaches its midpoint. As for `Cc1[nH]c2ccccc2c1C1=C(c2c(C)[nH]c3ccccc23)C(=O)N(CCCCCCC(=O)NO)C1=O` [SP-1-303], on HDAC4, the IC50 was greater than 20000 nM. For the same molecule, the EC50 in data set [1] was 12200 nM; in data set [1] (Homo sapiens, MCF-10A, 48 h) it was roughly 12000 nM; with MDA-MB-231 (TNB) cells it was 1220 ± 243 nM; in the data set with MDA-MB-231 (TNB) cells (Homo sapiens, MDA-MB-231, 48 h), 1200 nM; in data set [2] (range over MCF-7 and T47D cells, read-out: effective growth inhibition concentrations (EC50)) it was 320 to 340 nM; in data set [3], 1200 to 2500 nM. Besides, the “inhibition of ER+ BC cell growth compared to ER- TNBC cell growth” value in data set [2] is listed as 4-8 fold. Moreover, the “potency in ER+ cell lines relative to SAHA” value in data set [2] (more potent than SAHA) is reported as 10 fold. Also, the “D0, radiation clonogenic survival” value in the data set on MCF10A cells is on record as 2.4 Gy. Further, the Tmax in data set [4] (male, Sprague-Dawley, plasma, rat, mean value, read-out: tmax, time to reach maximum plasma concentration) is 4.98 min. Moreover, the half-life in data set [4] (male, Sprague-Dawley, plasma, rat, read-out: t1/2, elimination half-life (converted)) is 75.6 min. The “compound remaining in plasma at 4 h” value in data set [4] (rat plasma, 4 h) was 1%. The “AUC, area under the curve” value in data set [4] (rat) amounted to 5227.55 ng/ml x h. Besides, the “acetylation of α-tubulin” value with acetylated α-tubulin is “gradually increased”.
